Experimental data: US10160748B2 (AbbVie Inc., priority 2015, dated 2018)

Each compound was assayed against TNFα trimer (Homo sapiens, UniProt P01375) (assay: TNFα FP Competitive Binding Assay). Details: FP binding assay; 20 nM TNFα trimer, 1 nM OregonGreen488 probe; read-out: TNF IC50.
In short: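 Compounds in 12-point 1:3 series, final top 100 μM (2.0% DMSO) or 338 μM (3.4% DMSO), displace 1 nM fluorescent probe from 20 nM TNFα trimer. After 18-24 h incubation plus 1 h rt equilibration, background-subtracted polarization measured and curves fitted with variable slope.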

Chain of TNFα trimer (P01375 77-233 limits assumed): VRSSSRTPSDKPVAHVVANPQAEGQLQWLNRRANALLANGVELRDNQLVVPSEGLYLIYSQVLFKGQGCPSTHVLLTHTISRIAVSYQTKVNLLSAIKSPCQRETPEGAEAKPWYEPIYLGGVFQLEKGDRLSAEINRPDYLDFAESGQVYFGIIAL

IC50 | Compound
< 1 µM | Cc1ccc(OC(F)F)c(Cn2c3c(F)c(-c4cnc(C(C)(C)O)nc4C)ccc3c(=O)n2C)c1 [Example 45, 1-(2-(Difluoromethoxy)-5-methylbenzyl)-7-fluoro-6-(2-(2-hydroxypropan-2-yl)-4-methylpyrimidin-5-yl)-2-methyl-1H-indazol-3(2H)-one]
< 1 µM | Cn1c(=O)c2ccc(-c3cnc(N4CCN5C(=O)NC[C@H]5C4)nc3)cc2n1Cc1cc(Cl)ccc1C(F)(F)F [Example 29.5]
1 to 10 µM | C[C@@H]1CN(c2ncc(-c3ccc4c(=O)n(C)n(Cc5ccccc5Cl)c4c3C#N)cn2)CCN1C(=O)CO [Example 71, (R)-1-(2-Chlorobenzyl)-6-(2-(4-(2-hydroxyacetyl)-3-methylpiperazin-1-yl)pyrimidin-5-yl)-2-methyl-3-oxo-2,3-dihydro-1H-indazole-7-carbonitrile]
< 1 µM | Cn1c(=O)c2ccc(-c3cnc(N4CCN5C(=O)NC[C@H]5C4)nc3)cc2n1Cc1c(Cl)ccc2c1COC2 [Example 29.4]
< 1 µM | CC(=O)N1CCN(c2ncc(-c3ccc4c(=O)n(C)n(Cc5nc(C)ccc5C(F)(F)F)c4c3)cn2)[C@H](C)C1 [Example 74, (R)-6-(2-(4-Acetyl-2-methylpiperazin-1-yl)pyrimidin-5-yl)-2-methyl-1-((6-methyl-3-(trifluoromethyl)pyridin-2-yl)methyl)-1H-indazol-3(2H)-one]
< 1 µM | Cc1ccc(OC(F)F)c(Cn2c3nc(-c4cnc(C(C)(C)O)nc4C)c(F)cc3c(=O)n2C)c1 [Example 98, 1-(2-(Difluoromethoxy)-5-methylbenzyl)-5-fluoro-6-(2-(2-hydroxypropan-2-yl)-4-methylpyrimidin-5-yl)-2-methyl-1,2-dihydro-3H-pyrazolo[3,4-b]pyridin-3-one]

The next lines start with the compound.

Compound | IC50
Cc1ccc(OC(F)F)c(Cn2c3cc(-c4cnc(C(C)(C)CO)nc4)c(F)cc3c(=O)n2C)c1 [Example 17.4] | < 1 µM
Cn1c(=O)c2ccc(-c3cnc(N4CCN5C(=O)OC[C@H]5C4)nc3)cc2n1Cc1cc(CO)ccc1OC(F)F [Example 16.4] | < 1 µM
Cc1ccc(OC(F)F)c(Cn2c3cc(-c4cnc(N5CCN6C(=O)NC[C@H]6C5)nc4)ccc3c(=O)n2C)c1 [Example 15.1] | < 1 µM
Cc1c(-c2cnc(N3CCN(C(=O)CO)[C@H](C)C3)nc2)ccc2c(=O)n(C)n(Cc3ccccc3Cl)c12 [Example 24.13] | < 1 µM
Cn1c(=O)c2ccc(-c3cnc(N4CCOCC4)nc3)cc2n1Cc1cccc(F)c1 [Example 1.1] | 1 to 10 µM

Same assay, conditions: read-out: TNF IC50

IC50 | Compound
1 to 10 µM | C[C@@H](O)CNc1ccc(Cl)c(Cn2c3cc(-c4cnc(C(C)(C)O)nc4)ccc3c(=O)n2C)c1 [Example 30.2]
